Test results taken from patent publication US10596172B2 (Celgene CAR LLC, priority 2008, dated 2020).
pIC50: −log10 of the molar value. Like-named read-outs stand apart in the source and are kept apart here.

Legend:
JAK3 = JAK3 (Homo sapiens (Human), UniProt P52333); experiment: Omnia assay for potency assessment against the active form of JAK3; format: biochemical; conditions: read-out: JAK3 Inhibition
Experimental: Briefly, 10× stocks of EGFR-WT (PV3872) from Invitrogen and EGFR-T790M/L858R (40350) from BPS Bioscience, San Diego, Calif., 1.13×ATP (AS001A) and appropriate Tyr-Sox conjugated peptide substrates (KCZ1001) were prepared in 1× kinase reaction buffer consisting of 20 mM Tris, pH 7.5, 5 mM MgCl2, 1 mM EGTA, 5 mM β-glycerophosphate, 5% glycerol (10× stock, KB002A) and 0.2 mM DTT (DS001A).
The Omnia Assay Protocol for potency assessment against JAK3 was performed in a substantially similar manner as that described in Example 251 above except that the modified JAK3-optimized reagent conditions were:
[JAK3]=5 nM, [ATP]=5 μM, [Y12-Sox]=5 μM (ATP KMapp˜5 μM).

[1] = tested on: B cell lymphoma cell lines; experiment: B cell lymphoma proliferation assay; format: cell-based
[2] = Homo sapiens, DOHH-2, DOHH2 B cell lymphoma cell line, read-out: EC50 (μM) DOHH2
[3] = Homo sapiens, WSUDLCL2, WSU-DLCL2 B cell lymphoma cell line, read-out: EC50 (μM) WSU-DLCL2
[4] = DHL4 B cell lymphoma cell line, read-out: EC50 (μM) DHL4

Sequence of JAK3 (P52333 whole entry): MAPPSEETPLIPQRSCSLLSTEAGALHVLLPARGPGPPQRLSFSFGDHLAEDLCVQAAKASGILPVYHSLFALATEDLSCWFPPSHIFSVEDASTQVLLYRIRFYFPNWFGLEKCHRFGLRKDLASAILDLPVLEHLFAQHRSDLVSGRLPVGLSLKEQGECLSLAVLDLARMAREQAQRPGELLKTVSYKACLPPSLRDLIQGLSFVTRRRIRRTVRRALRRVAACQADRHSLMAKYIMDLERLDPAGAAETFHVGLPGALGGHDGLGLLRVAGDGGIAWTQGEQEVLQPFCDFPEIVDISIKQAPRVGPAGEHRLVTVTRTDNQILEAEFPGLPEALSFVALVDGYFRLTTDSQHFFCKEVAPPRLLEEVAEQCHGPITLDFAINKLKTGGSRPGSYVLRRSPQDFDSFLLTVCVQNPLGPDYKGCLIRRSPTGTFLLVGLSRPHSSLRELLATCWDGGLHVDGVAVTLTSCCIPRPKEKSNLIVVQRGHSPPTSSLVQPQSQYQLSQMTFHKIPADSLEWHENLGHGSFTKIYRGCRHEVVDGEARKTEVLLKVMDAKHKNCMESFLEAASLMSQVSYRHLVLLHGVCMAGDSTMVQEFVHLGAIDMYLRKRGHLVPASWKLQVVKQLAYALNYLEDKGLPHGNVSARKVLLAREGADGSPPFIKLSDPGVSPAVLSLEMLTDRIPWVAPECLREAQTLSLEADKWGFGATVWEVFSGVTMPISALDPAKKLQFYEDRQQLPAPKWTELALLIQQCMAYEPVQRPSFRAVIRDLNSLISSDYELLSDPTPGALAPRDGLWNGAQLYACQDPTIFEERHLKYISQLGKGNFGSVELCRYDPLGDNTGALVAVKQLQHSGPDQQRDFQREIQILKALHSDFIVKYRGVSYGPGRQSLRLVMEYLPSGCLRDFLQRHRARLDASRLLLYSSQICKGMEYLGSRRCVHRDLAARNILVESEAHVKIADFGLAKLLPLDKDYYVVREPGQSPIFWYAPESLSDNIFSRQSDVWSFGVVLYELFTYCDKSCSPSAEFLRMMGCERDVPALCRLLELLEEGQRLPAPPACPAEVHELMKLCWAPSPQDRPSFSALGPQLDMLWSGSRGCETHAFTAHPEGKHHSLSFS

Structure (SMILES): C=CC(=O)Nc1cccc(Nc2nccc(Nc3cccc(C)c3)n2)c1 [Compound I-1, N-(3-(4-(m-tolylamino)pyrimidin-2-ylamino)phenyl)acrylamide]
- pIC50 (JAK3): > 8.00

Structure (SMILES): C=CC(=O)Nc1cccc(Nc2ncc(F)c(Nc3cccc(C)c3)n2)c1 [Compound I-3, N-(3-(5-fluoro-4-(m-tolylamino)pyrimidin-2-ylamino)phenyl)acrylamide]
- pIC50 (JAK3): > 8.00
- EC50 [1, 2]: 0.1 to 1 µM

Structure (SMILES): C=CC(=O)Nc1cccc(Nc2ncc(C)c(Nc3ccccc3)n2)c1 [Compound I-5, N-(3-(5-methyl-4-(phenylamino)pyrimidin-2-ylamino)phenyl) acrylamide]
- pIC50 (JAK3): > 8.00

Structure (SMILES): C=CC(=O)Nc1ccc(C)c(Nc2ncc(C)c(Nc3cccc(C)c3)n2)c1 [Compound I-8, N-(4-methyl-3-(5-methyl-4-(m-tolylamino)pyrimidin-2-ylamino)phenyl)acrylamide]
- pIC50 (JAK3): > 8.00

Structure (SMILES): C=CC(=O)Nc1cccc(Nc2ncc(C)c(Nc3cccc(Br)c3)n2)c1 [Compound I-9, N-(3-(4-(3-bromophenylamino)-5-methylpyrimidin-2-ylamino)phenyl) acrylamide]
- pIC50 (JAK3): > 8.00

Structure (SMILES): C=CC(=O)N1CCCC(Nc2nc(Nc3ccccc3)ncc2C)C1 (stereo not drawn) [Compound I-27]
- pIC50 (JAK3): 7.00 to 8.00
- EC50 [1, 2]: 1 to 10 µM
- EC50 [1, 3]: > 10 µM

Structure (SMILES): C=CC(=O)Nc1cccc(Nc2nc(Nc3cccc(S(N)(=O)=O)c3)ncc2C)c1 [Compound I-33, N-(3-(5-methyl-2-(3-sulfamoylphenylamino)pyrimidin-4-ylamino)phenyl)acrylamide]
- pIC50 (JAK3): > 8.00

Structure (SMILES): C=CC(=O)Nc1cccc(N(C)c2nc(Nc3ccccc3)ncc2C)c1 [Compound I-34, N-(3-(methyl(5-methyl-2-(phenylamino)pyrimidin-4-yl)amino)phenyl)acrylamide]
- pIC50 (JAK3): 7.00 to 8.00

Structure (SMILES): C=CC(=O)Nc1cccc(Nc2nc(Nc3cccc(OCCCNC(=O)OC(C)(C)C)c3)ncc2C)c1 [Compound I-45, tert-butyl 3-(3-(4-(3-acrylamidophenylamino)-5-methylpyrimidin-2-ylamino)phenoxy)propylcarbamate]
- pIC50 (JAK3): > 8.00

Structure (SMILES): C=CC(=O)Nc1ccc(C)c(Nc2nccc(-c3cccnc3)n2)c1 [Compound I-56, N-(4-methyl-3-(4-(pyridin-3-yl)pyrimidin-2-ylamino)phenyl)acrylamide]
- pIC50 (JAK3): 7.00 to 8.00

Structure (SMILES): C=CC(=O)Nc1cccc(Oc2nc(Nc3ccc(OC)nc3)ncc2C(=O)Nc2ccccc2)c1 [Compound I-159, 4-(3-acrylamidophenoxy)-2-(6-methoxypyridin-3-ylamino)-pyrimidine-5-carboxylic acid phenylamide]
- EC50 [1, 2]: 1 to 10 µM

Structure (SMILES): C=CC(=O)Nc1cccc(Nc2nc(Nc3cccc(S(N)(=O)=O)c3)ncc2F)c1 [Compound I-160, N-(3-(5-fluoro-2-(3-sulfamoylphenylamino)pyrimidin-4-ylamino)phenyl)acrylamide]
- EC50 [1, 4]: 1 to 10 µM
- EC50 [1, 2]: 1 to 10 µM
- EC50 [1, 3]: 1 to 10 µM

Structure (SMILES): C=CC(=O)N1Cc2ccc(Nc3nc(Nc4ccc(OC)nc4)ncc3F)cc2C1 [Compound I-165, 1-(5-(5-fluoro-2-(6-methoxypyridin-3-ylamino)pyrimidin-4-ylamino)isoindolin-2-yl)prop-2-en-1-one]
- EC50 [1, 4]: 1 to 10 µM
- EC50 [1, 2]: 1 to 10 µM
- EC50 [1, 3]: 1 to 10 µM

Structure (SMILES): C=CC(=O)N1CCc2ccc(Nc3nc(Nc4ccc(OC)nc4)ncc3F)cc21 [Compound I-166, 1-(6-(5-fluoro-2-(6-methoxypyridin-3-ylamino)pyrimidin-4-ylamino)indolin-1-yl)prop-2-en-1-one]
- EC50 [1, 4]: 1 to 10 µM
- EC50 [1, 2]: 1 to 10 µM
- EC50 [1, 3]: 1 to 10 µM

Structure (SMILES): C=CC(=O)Nc1cccc(Nc2nc(Nc3ccc(OC)nc3)ncc2C2CC2)c1 [Compound I-167, N-(3-(5-cyclopropyl-2-(6-methoxypyridin-3-ylamino)pyrimidin-4-ylamino)phenyl)acrylamide]
- EC50 [1, 2]: 1 to 10 µM

Structure (SMILES): C=CC(=O)N1CCOc2ccc(Nc3nc(Nc4ccc(N5CCOCC5)nc4)ncc3C(C)=O)cc21 [Compound I-168, 1-{6-[5-Acetyl-2-(6-morpholin-4-yl-pyridin-3-ylamino)-pyrimidin-4-ylamino]-2,3-dihydro-benzo[1,4]oxazin-4-yl}-propenone]
- EC50 [1, 2]: 1 to 10 µM

Structure (SMILES): C=CC(=O)N1CCOc2ccc(Nc3nc(Nc4ccc(N5CCOCC5)cc4)ncc3C(C)=O)cc21 [Compound I-169, 1-{6-[5-Acetyl-2-(4-morpholin-4-yl-phenylamino)-pyrimidin-4-ylamino]-2,3-dihydro-benzo[1,4]oxazin-4-yl}-propenone]
- EC50 [1, 2]: 1 to 10 µM

Structure (SMILES): C=CC(=O)Nc1cccc(N(C(=O)C=C)c2nc(Nc3ccc(OC)nc3)ncc2C#N)c1 [Compound I-171, N-(3-acrylamidophenyl)-N-(5-cyano-2-(6-methoxypyridin-3-ylamino)pyrimidin-4-yl)acrylamide]
- EC50 [1, 2]: 1 to 10 µM

Structure (SMILES): C=CC(=O)Nc1cccc(Nc2nc(Nc3ccc(OC(C)C)nc3)ncc2F)c1 [Compound I-172, N-(3-(5-fluoro-2-(6-isopropoxypyridin-3-ylamino)pyrimidin-4-ylamino)phenyl)acrylamide]
- EC50 [1, 2]: 1 to 10 µM

Structure (SMILES): C=CC(=O)Nc1cccc(Nc2nc(Nc3ccc(OC)nc3)ncc2C#N)c1 [Compound I-173, N-(3-(5-cyano-2-(6-methoxypyridin-3-ylamino)pyrimidin-4-ylamino)phenyl)acrylamide]
- EC50 [1, 2]: 1 to 10 µM

Structure (SMILES): C=CC(=O)Nc1cccc(Nc2nc(Nc3ccc4c(c3)NCCO4)ncc2F)c1 [Compound I-174]
- EC50 [1, 2]: 1 to 10 µM

Structure (SMILES): C=CC(=O)Nc1cccc(Oc2nc(Nc3ccc(OC)nc3)ncc2C)c1 [Compound I-186, N-(3-(2-(6-methoxypyridin-3-ylamino)-5-methylpyrimidin-4-yloxy)phenyl)acrylamide]
- EC50 [1, 4]: 1 to 10 µM
- EC50 [1, 2]: 1 to 10 µM

Structure (SMILES): C=CC(=O)Nc1cccc(Oc2nc(Nc3ccc(OC)nc3)ncc2C(C)=O)c1 [Compound I-188, N-{3-[5-Acetyl-2-(6-methoxy-pyridin-3-ylamino)-pyrimidin-4-yloxy]-phenyl}-acrylamide]
- EC50 [1, 2]: 1 to 10 µM

Structure (SMILES): C=CC(=O)Nc1cccc(Nc2nc(Nc3ccc(OC)nc3)ncc2C(C)=O)c1 [Compound I-189, N-{3-[5-Acetyl-2-(6-methoxy-pyridin-3-ylamino)-pyrimidin-4-ylamino]-phenyl}-acrylamide]
- EC50 [1, 4]: 1 to 10 µM
- EC50 [1, 2]: > 10 µM
- EC50 [1, 3]: > 10 µM

Structure (SMILES): C=CC(=O)Nc1cccc(Nc2nc(Nc3ccc(OC)nc3)ncc2OC)c1 [Compound I-192, N-(3-(5-methoxy-2-(6-methoxypyridin-3-ylamino)pyrimidin-4-ylamino)phenyl)acrylamide]
- EC50 [1, 2]: 1 to 10 µM
- EC50 [1, 3]: > 10 µM

Structure (SMILES): C=CC(=O)N1CCOc2ccc(Nc3nc(Nc4ccc(OC)nc4)ncc3F)cc21 [Compound I-194, 1-(6-(5-fluoro-2-(6-methoxypyridin-3-ylamino)pyrimidin-4-ylamino)-2H-benzo[b][1,4]oxazin-4(3H)-yl)prop-2-en-1-one]
- EC50 [1, 4]: 1 to 10 µM
- EC50 [1, 2]: 1 to 10 µM
- EC50 [1, 3]: 1 to 10 µM

Structure (SMILES): C=CC(=O)Nc1cccc(Nc2nc(Nc3cccc(OCCCn4ccnc4)c3)ncc2F)c1 [Compound I-204, N-(3-(2-(3-(3-(1H-imidazol-1-yl)propoxy)phenylamino)-5-fluoropyrimidin-4-ylamino)phenyl)acrylamide]
- EC50 [1, 2]: 1 to 10 µM
- EC50 [1, 3]: 1 to 10 µM

Structure (SMILES): C=CC(=O)Nc1cccc(Nc2nc(Nc3cccc(OCCCN4CCOCC4)c3)ncc2F)c1 [Compound I-208, N-(3-(5-fluoro-2-(3-(3-morpholinopropoxy)phenylamino)pyrimidin-4-ylamino)phenyl)acrylamide]
- EC50 [1, 2]: 1 to 10 µM
- EC50 [1, 3]: 1 to 10 µM

Structure (SMILES): C=CC(=O)Nc1cccc(Nc2nc(Nc3ccc(OC)nc3)ncc2C(N)=O)c1 [Compound I-209, 4-(3-acrylamidophenylamino)-2-(6-methoxypyridin-3-ylamino)pyrimidine-5-carboxamide]
- EC50 [1, 2]: > 10 µM
- EC50 [1, 3]: 1 to 10 µM

Structure (SMILES): C=CC(=O)Nc1cccc(Nc2nc(Nc3cccc(OC)c3)ncc2C(N)=O)c1 [Compound I-210, 4-(3-acrylamidophenylamino)-2-(3-methoxyphenylamino)pyrimidine-5-carboxamide]
- EC50 [1, 2]: 1 to 10 µM
- EC50 [1, 3]: 1 to 10 µM

Structure (SMILES): C=CC(=O)Nc1cccc(Oc2nc(Nc3ccc(OC)nc3)ncc2F)c1 [Compound I-217]
- EC50 [1, 2]: > 10 µM
- EC50 [1, 3]: > 10 µM

Structure (SMILES): C=CC(=O)Nc1cccc(Nc2nc(NC3CCCN(C(C)=O)C3)ncc2F)c1 (stereo not drawn) [Compound I-238, N-(3-(2-(1-acetylpiperidin-3-ylamino)-5-fluoropyrimidin-4-ylamino)phenyl)acrylamide]
- pIC50 (JAK3): 5.00 to 6.00

Structure (SMILES): C=CC(=O)Nc1cccc(Nc2nc(NCc3ccc(OC)cc3)ncc2F)c1 [Compound I-241, N-(3-(5-fluoro-2-(4-methoxybenzylamino)pyrimidin-4-ylamino)phenyl)acrylamide]
- pIC50 (JAK3): 6.00 to 7.00

Structure (SMILES): C/C=C/C(=O)OCc1cccc(Nc2nc(Nc3ccccc3)ncc2C)c1 [Compound I-246, (E)-3-(5-methyl-2-(phenylamino)pyrimidin-4-ylamino)benzyl but-2-enoate]
- pIC50 (JAK3): 6.00 to 7.00

Structure (SMILES): C=CC(=O)Nc1cccc(Nc2nc(Nc3cccc(OCCN(CC)CC)c3)ncc2F)c1 [Compound I-298]
- EC50 [1, 3]: 1 to 10 µM

Structure (SMILES): COCCOc1ccc(Nc2ncc(F)c(Nc3cccc(C(=O)C=C(C)C)c3)n2)cc1F [Compound I-323, 1-(3-(5-fluoro-2-(3-fluoro-4-(2-methoxyethoxy)phenylamino)pyrimidin-4-ylamino)phenyl)-3-methylbut-2-en-1-one]
- pIC50 (JAK3): < 5.00
